Test results published in US20130267551A1, “SUBSTITUTED HYDROGENATED THIENO-PYRROLO[3,2-C]PYRIDINE, LIGANDS, A PHARMACEUTICAL COMPOSITION AND A METHOD FOR USING THE ABOVE” (ALLA CHEM, LLC, priority 2010, published 2013).
Where a name gives a salt, the structure may show the parent alone.

How the values were obtained:
Dopaminergic D2S = Dopaminergic D2S (Homo sapiens, UniProt P14416); experiment: competitive radioligand binding, Dopaminergic D2S; conditions: compound concentration of 1 μM
Experimental: (§1) Profiles of pharmacological activity of thieno-pyrrolo[3,2-c]pyridines of the general formula 1. Biological activity test of compounds of the general formula 1 was carried out in the setting of competitive radioligand binding [I. Okun, S. Tkachenko, A. Khvat, et al., Current Alzheimer Research, 7(2), 97-112 (2010)], using a wide range of therapeutic targets including G-protein coupled receptors (GPCR), ion channels and neuromediator transporters. The tested activity was determined by quantitative measurement of radio-labelled ligand displacement by tested compounds of the general formula 1 at their concentration of 1 μM.

Histaminergic H1 = Histaminergic H1 (Homo sapiens, UniProt P35367); experiment: competitive radioligand binding, Histaminergic H1; conditions: compound concentration of 1 μM
Experimental: as §1

Serotoninergic 5-HT2C = target: T1, Serotoninergic 5-HT2C (Homo sapiens, UniProt P28335); experiment: competitive radioligand binding, Serotoninergic 5-HT2C; conditions: compound concentration of 1 μM
T1 sequence (P28335 33-458): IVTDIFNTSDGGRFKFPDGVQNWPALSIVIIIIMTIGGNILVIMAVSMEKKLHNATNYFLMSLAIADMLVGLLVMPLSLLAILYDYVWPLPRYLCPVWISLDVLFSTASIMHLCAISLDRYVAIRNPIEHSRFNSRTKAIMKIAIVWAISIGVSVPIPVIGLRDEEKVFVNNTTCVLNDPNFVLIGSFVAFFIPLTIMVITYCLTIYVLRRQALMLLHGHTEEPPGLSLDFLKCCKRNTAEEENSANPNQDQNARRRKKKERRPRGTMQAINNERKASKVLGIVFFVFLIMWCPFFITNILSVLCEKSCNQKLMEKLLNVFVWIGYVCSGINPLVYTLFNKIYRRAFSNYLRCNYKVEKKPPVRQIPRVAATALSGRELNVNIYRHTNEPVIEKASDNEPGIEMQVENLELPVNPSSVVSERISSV
Experimental: as §1

Histaminergic H2 = Histaminergic H2 (Homo sapiens, UniProt P25021); experiment: competitive radioligand binding, Histaminergic H2; conditions: compound concentration of 1 μM
Experimental: as §1

Adrenergic α1D = target: T2, Adrenergic α1D (Homo sapiens, UniProt P25100); experiment: competitive radioligand binding, Adrenergic α1D; conditions: compound concentration of 1 μM
T2 sequence (P25100 1-572): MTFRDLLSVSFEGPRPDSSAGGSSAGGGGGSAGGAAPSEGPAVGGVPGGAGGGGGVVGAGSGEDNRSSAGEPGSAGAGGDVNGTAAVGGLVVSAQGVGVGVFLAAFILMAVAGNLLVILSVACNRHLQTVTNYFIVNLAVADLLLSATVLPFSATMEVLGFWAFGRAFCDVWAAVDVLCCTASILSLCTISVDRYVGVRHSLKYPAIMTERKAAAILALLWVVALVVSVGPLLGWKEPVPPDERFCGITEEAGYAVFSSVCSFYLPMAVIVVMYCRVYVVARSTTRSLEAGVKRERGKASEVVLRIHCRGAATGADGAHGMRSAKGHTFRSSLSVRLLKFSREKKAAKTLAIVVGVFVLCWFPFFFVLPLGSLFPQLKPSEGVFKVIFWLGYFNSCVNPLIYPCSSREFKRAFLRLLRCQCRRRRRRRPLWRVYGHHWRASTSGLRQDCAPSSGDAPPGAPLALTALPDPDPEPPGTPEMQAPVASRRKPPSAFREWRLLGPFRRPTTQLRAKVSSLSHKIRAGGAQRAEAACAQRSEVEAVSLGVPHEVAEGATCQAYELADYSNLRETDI
Experimental: as §1

Serotoninergic 5-HT7 = Serotoninergic 5-HT7 (Homo sapiens, UniProt P34969); experiment: competitive radioligand binding, Serotoninergic 5-HT7; conditions: compound concentration of 1 μM
Experimental: as §1

Adrenergic α1A = experiment: competitive radioligand binding, Adrenergic α1A; conditions: compound concentration of 1 μM
Experimental: as §1

Dopaminergic D3 = Dopaminergic D3 (Homo sapiens, UniProt P35462); experiment: competitive radioligand binding, Dopaminergic D3; conditions: compound concentration of 1 μM
Experimental: as §1

[1] = system: Therapeutic targets (Adrenergic, Dopaminergic, Histaminergic, Serotoninergic); experiment: Profiles of pharmacological activity in competitive radioligand binding (whole panel); conditions: 1 μM, grades not defined
Experimental: as §1

Serotoninergic 5-HT6 = Serotoninergic 5-HT6 (Homo sapiens, UniProt P50406); experiment: competitive radioligand binding, Serotoninergic 5-HT6; conditions: compound concentration of 1 μM
Experimental: as §1

Dopaminergic D4.2 = target: T3, Dopaminergic D4.2 (Homo sapiens, UniProt P21917, DEL265-296); experiment: competitive radioligand binding, Dopaminergic D4.2; conditions: compound concentration of 1 μM
T3 sequence (P21917 with tags, fused parts or gaps DEL265-296): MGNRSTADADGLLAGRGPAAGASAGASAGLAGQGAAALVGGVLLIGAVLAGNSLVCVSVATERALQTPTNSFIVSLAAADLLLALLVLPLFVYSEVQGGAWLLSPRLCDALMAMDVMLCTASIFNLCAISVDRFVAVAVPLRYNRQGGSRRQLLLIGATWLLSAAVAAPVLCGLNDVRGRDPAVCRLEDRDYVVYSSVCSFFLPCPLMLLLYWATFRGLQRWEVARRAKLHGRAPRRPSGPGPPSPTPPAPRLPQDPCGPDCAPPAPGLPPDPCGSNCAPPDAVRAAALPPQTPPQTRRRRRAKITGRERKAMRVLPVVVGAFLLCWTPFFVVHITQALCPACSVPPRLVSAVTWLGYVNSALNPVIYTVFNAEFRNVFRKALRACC
Experimental: as §1

Adrenergic α1B = experiment: competitive radioligand binding, Adrenergic α1B; conditions: compound concentration of 1 μM
Experimental: as §1

Serotoninergic 5-HT2A = Serotoninergic 5-HT2A (Homo sapiens, UniProt P28223); experiment: competitive radioligand binding, Serotoninergic 5-HT2A; conditions: compound concentration of 1 μM
Experimental: as §1

Serotoninergic 5-HT1B = experiment: competitive radioligand binding, Serotoninergic 5-HT1B; conditions: compound concentration of 1 μM
Experimental: as §1

Serotoninergic 5-HT1A = target: T4, Serotoninergic 5-HT1A (Homo sapiens, UniProt P08908); experiment: competitive radioligand binding, Serotoninergic 5-HT1A; conditions: compound concentration of 1 μM
T4 sequence (P08908 1-422): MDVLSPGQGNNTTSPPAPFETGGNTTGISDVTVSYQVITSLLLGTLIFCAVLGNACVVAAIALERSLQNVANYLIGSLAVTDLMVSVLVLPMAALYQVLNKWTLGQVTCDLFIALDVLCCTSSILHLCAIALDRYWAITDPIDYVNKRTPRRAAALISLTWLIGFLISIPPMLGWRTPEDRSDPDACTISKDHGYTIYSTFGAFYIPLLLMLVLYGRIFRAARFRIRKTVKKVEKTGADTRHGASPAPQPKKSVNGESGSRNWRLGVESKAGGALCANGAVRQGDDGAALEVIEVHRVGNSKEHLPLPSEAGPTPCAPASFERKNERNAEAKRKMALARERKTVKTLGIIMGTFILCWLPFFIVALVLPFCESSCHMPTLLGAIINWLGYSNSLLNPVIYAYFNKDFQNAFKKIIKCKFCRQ
Experimental: as §1

Dopaminergic D1 = Dopaminergic D1 (Homo sapiens, UniProt P21728); experiment: competitive radioligand binding, Dopaminergic D1; conditions: compound concentration of 1 μM
Experimental: as §1

Dopaminergic D2L = Dopaminergic D2L (Homo sapiens, UniProt P14416); experiment: competitive radioligand binding, Dopaminergic D2L; conditions: compound concentration of 1 μM
Experimental: as §1

Histaminergic H3 = Histaminergic H3 (Homo sapiens, UniProt Q9Y5N1); experiment: competitive radioligand binding, Histaminergic H3; conditions: compound concentration of 1 μM; in % (unit assumed)
Experimental: as §1

Adrenergic α2A = target: T5, Adrenergic α2A (Homo sapiens, UniProt P08913); experiment: competitive radioligand binding, Adrenergic α2A; conditions: compound concentration of 1 μM
T5 sequence (P08913 1-465): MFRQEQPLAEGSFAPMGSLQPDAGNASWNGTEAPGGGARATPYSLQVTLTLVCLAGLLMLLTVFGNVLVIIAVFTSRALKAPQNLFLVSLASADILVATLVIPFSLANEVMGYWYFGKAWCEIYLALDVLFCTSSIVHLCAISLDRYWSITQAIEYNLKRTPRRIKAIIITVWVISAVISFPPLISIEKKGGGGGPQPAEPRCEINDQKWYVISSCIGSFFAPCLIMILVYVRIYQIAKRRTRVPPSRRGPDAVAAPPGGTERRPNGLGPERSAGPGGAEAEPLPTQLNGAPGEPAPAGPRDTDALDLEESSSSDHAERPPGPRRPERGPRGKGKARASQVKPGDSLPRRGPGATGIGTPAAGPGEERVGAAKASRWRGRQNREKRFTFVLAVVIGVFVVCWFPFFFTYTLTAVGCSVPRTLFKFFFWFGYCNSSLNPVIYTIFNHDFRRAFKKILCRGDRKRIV
Experimental: as §1

Serotoninergic 5-HT2B = Serotoninergic 5-HT2B (Homo sapiens, UniProt P41595); experiment: competitive radioligand binding, Serotoninergic 5-HT2B; conditions: compound concentration of 1 μM
Experimental: as §1

Mice of SHK line = experiment: Prepulse inhibition of startle response in mice (Apomorphine); conditions: 1 mg/kg, intraperitoneally 60 minutes before the test

Sequence of Serotoninergic 5-HT2A (P28223 whole entry): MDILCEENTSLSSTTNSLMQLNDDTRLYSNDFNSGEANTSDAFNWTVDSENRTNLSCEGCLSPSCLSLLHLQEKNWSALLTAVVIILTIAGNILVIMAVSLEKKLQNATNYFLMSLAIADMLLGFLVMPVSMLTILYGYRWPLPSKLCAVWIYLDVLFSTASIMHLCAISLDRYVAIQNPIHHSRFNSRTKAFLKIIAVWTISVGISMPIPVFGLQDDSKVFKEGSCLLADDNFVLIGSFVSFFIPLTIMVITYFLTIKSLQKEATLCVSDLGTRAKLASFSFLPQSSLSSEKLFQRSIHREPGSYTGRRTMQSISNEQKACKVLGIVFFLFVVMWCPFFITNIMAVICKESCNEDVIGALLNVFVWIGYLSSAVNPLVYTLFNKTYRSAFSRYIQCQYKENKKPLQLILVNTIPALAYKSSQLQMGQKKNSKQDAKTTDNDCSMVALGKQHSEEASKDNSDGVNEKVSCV
Sequence of Dopaminergic D1 (P21728 whole entry): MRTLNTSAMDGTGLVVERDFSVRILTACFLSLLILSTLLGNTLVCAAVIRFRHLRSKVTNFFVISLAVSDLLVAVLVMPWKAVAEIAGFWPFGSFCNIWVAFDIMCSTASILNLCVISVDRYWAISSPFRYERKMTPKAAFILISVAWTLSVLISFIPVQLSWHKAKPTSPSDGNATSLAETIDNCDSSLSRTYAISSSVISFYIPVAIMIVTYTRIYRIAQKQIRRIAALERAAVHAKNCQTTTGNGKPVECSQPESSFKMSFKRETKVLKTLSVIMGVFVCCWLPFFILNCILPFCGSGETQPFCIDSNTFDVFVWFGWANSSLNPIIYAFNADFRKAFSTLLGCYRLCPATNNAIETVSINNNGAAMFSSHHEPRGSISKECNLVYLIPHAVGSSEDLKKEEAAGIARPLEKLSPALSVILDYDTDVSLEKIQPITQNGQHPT
Sequence of Serotoninergic 5-HT7 (P34969 whole entry): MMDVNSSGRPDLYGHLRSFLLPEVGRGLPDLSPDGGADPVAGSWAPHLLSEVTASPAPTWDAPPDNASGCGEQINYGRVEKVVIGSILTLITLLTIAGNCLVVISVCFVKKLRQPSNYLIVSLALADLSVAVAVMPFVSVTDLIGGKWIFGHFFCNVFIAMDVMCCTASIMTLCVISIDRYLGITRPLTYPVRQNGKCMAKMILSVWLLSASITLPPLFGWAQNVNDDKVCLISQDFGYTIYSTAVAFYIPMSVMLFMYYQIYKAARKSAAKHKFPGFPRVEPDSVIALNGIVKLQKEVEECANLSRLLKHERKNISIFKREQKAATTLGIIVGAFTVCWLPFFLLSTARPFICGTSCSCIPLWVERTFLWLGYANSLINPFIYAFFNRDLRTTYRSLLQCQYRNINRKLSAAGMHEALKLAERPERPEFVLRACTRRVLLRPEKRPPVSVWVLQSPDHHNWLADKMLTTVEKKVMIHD
Sequence of Dopaminergic D3 (P35462 whole entry): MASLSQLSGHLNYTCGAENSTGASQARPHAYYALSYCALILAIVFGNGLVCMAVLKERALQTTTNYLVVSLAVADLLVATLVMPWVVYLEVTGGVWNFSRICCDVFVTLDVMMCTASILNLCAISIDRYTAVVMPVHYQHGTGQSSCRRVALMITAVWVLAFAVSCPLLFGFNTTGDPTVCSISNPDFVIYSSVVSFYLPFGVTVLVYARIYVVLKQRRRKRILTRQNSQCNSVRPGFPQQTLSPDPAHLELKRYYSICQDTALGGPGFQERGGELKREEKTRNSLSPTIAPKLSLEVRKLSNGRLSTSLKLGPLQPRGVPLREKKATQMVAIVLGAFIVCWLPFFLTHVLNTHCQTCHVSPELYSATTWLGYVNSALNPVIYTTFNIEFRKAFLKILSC
Sequence of Serotoninergic 5-HT2B (P41595 whole entry): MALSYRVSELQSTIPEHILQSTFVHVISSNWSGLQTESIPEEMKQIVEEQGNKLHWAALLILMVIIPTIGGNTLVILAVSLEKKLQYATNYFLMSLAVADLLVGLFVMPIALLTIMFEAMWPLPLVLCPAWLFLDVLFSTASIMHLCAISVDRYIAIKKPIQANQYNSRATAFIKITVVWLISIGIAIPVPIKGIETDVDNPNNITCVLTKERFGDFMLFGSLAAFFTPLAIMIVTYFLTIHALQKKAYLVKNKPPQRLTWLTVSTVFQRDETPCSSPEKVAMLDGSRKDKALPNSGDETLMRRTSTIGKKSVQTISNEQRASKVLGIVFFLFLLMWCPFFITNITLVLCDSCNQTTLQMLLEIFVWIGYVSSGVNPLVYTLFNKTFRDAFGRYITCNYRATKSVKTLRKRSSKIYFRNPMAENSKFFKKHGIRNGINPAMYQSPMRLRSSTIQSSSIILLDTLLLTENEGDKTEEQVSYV
Sequence of Histaminergic H2 (P25021 whole entry): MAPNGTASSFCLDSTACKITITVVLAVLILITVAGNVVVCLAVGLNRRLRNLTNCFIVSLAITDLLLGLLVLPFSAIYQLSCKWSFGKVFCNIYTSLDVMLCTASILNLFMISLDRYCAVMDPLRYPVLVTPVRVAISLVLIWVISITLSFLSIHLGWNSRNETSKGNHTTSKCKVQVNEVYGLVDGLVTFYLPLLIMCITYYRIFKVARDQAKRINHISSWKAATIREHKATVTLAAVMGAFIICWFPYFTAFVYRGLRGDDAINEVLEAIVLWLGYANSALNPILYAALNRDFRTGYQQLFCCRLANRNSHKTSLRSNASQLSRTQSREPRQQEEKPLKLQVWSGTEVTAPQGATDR
Sequence of Histaminergic H3 (Q9Y5N1 whole entry): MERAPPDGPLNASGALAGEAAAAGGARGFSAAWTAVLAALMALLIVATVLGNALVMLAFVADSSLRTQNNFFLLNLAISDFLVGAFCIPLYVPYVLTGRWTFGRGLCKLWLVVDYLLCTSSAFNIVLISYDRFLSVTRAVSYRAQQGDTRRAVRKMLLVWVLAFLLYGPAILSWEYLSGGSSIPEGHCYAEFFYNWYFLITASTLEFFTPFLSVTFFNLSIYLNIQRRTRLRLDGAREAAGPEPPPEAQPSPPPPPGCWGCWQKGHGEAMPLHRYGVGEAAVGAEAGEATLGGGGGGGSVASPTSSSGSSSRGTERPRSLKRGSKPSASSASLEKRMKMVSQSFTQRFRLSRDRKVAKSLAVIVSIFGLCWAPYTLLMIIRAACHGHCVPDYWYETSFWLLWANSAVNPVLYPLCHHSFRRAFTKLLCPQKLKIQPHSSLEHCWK
Sequence of Histaminergic H1 (P35367 whole entry): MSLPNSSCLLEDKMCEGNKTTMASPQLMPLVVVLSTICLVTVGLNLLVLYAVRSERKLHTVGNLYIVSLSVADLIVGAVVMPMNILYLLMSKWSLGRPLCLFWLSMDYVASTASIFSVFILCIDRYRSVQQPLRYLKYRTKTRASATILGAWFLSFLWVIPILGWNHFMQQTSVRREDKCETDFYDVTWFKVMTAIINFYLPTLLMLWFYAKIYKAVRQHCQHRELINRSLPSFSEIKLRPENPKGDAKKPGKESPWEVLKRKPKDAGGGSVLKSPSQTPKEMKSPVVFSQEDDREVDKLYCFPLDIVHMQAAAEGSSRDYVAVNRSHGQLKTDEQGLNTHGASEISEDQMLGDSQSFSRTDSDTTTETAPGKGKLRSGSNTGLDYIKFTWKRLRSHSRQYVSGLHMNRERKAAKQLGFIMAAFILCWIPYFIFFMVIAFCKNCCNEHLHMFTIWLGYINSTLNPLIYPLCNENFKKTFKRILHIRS
Sequence of Dopaminergic D2S (P14416 1-414 isoform P14416-2): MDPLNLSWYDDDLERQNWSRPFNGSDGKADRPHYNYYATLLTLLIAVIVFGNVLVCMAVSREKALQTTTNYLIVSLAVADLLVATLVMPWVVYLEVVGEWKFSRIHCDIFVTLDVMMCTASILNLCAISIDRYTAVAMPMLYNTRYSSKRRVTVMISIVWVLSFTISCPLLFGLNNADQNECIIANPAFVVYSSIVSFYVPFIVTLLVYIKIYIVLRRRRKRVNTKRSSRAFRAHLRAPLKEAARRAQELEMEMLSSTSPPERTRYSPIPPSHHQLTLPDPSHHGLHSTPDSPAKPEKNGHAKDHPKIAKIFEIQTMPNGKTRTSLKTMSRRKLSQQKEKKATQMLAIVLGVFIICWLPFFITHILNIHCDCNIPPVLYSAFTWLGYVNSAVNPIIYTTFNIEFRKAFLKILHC
Sequence of Dopaminergic D2L (P14416 whole entry): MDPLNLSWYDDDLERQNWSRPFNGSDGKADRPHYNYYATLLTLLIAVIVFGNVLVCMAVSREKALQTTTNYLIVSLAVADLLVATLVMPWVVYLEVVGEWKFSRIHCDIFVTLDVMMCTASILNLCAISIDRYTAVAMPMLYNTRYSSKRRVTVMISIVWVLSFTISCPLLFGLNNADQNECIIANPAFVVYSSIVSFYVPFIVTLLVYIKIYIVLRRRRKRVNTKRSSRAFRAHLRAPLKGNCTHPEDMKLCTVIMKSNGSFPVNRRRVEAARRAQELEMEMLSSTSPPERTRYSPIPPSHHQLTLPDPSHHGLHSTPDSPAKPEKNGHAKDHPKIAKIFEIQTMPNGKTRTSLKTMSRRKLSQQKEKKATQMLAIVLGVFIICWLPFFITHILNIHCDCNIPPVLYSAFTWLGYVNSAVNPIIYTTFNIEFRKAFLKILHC
Sequence of Serotoninergic 5-HT6 (P50406 whole entry): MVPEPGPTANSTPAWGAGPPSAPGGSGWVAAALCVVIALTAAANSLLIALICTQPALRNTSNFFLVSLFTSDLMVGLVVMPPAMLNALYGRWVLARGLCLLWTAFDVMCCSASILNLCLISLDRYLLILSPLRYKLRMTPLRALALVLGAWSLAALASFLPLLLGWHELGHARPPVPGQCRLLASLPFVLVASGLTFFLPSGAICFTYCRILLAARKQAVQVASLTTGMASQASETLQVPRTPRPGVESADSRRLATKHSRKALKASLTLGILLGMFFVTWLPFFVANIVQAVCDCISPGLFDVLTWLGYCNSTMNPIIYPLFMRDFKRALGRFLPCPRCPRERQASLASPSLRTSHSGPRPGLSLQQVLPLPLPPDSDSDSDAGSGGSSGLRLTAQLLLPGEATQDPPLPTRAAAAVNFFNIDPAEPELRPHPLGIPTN

| Compound | radio-labelled ligand displacement, Dopaminergic D2S (Dopaminergic D2S) [%] | radio-labelled ligand displacement, Histaminergic H1 (Histaminergic H1) [%] | radio-labelled ligand displacement, Serotoninergic 5-HT2C (Serotoninergic 5-HT2C) [%] | radio-labelled ligand displacement, Histaminergic H2 (Histaminergic H2) [%] | radio-labelled ligand displacement, Adrenergic α1D (Adrenergic α1D) [%] | radio-labelled ligand displacement, Serotoninergic 5-HT7 (Serotoninergic 5-HT7) [%] | radio-labelled ligand displacement, Adrenergic α1A (Adrenergic α1A) [%] | radio-labelled ligand displacement, Dopaminergic D3 (Dopaminergic D3) [%] | grade of the activity profile (poor / satisfactory / good) [1] | radio-labelled ligand displacement, Serotoninergic 5-HT6 (Serotoninergic 5-HT6) [%] | radio-labelled ligand displacement, Dopaminergic D4.2 (Dopaminergic D4.2) [%] | radio-labelled ligand displacement, Adrenergic α1B (Adrenergic α1B) [%] | radio-labelled ligand displacement, Serotoninergic 5-HT2A (Serotoninergic 5-HT2A) [%] | radio-labelled ligand displacement, Serotoninergic 5-HT1B (Serotoninergic 5-HT1B) [%] | radio-labelled ligand displacement, Serotoninergic 5-HT1A (Serotoninergic 5-HT1A) [%] | radio-labelled ligand displacement, Dopaminergic D1 (Dopaminergic D1) [%] | radio-labelled ligand displacement, Dopaminergic D2L (Dopaminergic D2L) [%] | radio-labelled ligand displacement, Histaminergic H3 (Histaminergic H3) | radio-labelled ligand displacement, Adrenergic α2A (Adrenergic α2A) [%] | radio-labelled ligand displacement, Serotoninergic 5-HT2B (Serotoninergic 5-HT2B) [%] | further results |
| --- | --- | --- | --- | --- | --- | --- | --- | --- | --- | --- | --- | --- | --- | --- | --- | --- | --- | --- | --- | --- | --- |
| Cc1ccc(CCCn2c3c(c4c(Cl)csc42)CN(C)CC3)cc1 [3.12(5)•HCl, 5-methyl-8-[(p-tolyl)propyl]-3-chloro-4,5,6,7-tetrahydro-5H-thieno[3′,2′:4,5]pyrrolo[3,2-c]pyridine] | 29 | 89 | 94 | 57 | 86 | 96 | 79 | 23 | good | 99 | 33 | 89 | 97 | 30 | 18 | 47 | 35 | −3 | 91 | 63 | – |
| O=C(CCCN1CCC(O)(c2ccc(Cl)cc2)CC1)c1ccc(F)cc1 [Haloperidol, reference compound] | – | – | – | – | – | – | – | – | – | – | – | – | – | – | – | – | – | – | – | – | Antipsychotic activity: disturbance of prepulse inhibition of startle caused by Apomorphine (Mice of SHK line): prevented disturbance of prepulse inhibition of startle caused by Apomorphine |
| Cc1ccc(C=CCn2c3c(c4cc(C)sc42)CN(C)CC3)cc1 [3.11(2)•HCl, 2,5-dimethyl-8-[3-(p-tolyl)allyl]-4,5,6,7-tetrahydro-5H-thieno[3′,2′:4,5]pyrrolo[3,2-c]pyridine] | 61 | 81 | 93 | 50 | 42 | 85 | 55 | 49 | satisfactory | 95 | 13 | 60 | 93 | 39 | 21 | 10 | 50 | 7 | 53 | 89 | – |
